Results as given in ChEMBL document CHEMBL3808275, “Design, synthesis and SARs of novel salicylanilides as potent inhibitors of RANKL-induced osteoclastogenesis and bone resorption” (Eur J Med Chem, 2016).
Activity calls are given as the source filed them. The calls are words filed in the database; no cut-off is given here.

What was measured:
[1] = Cytotoxicity against mouse RAW264.7 cells assessed as survival rate at 2.5 uM after 24 hrs by MTT assay; assay type: cell-based; conditions: read-out: Survival
[2] = Cytotoxicity against mouse RAW264.7 cells assessed as reduction in cell viability after 24 hrs by MTT assay; assay type: cell-based
[3] = tested on: RAW264.7; experiment: Cytotoxicity against mouse RAW264.7 cells assessed as reduction in cell viability at 5 uM after 24 hrs by MTT assay; assay type: cell-based; conditions: raw264.7, 24 h
[4] = tested on: RAW264.7; experiment: Inhibition of RANKL-induced osteoclast differentiation in mouse RAW264.7 cells assessed as reduction in TRAP-positive multinucleated cells level incubated with compound in presence of RANKL for 4 days by TRAP staining based light microscopic analysis relative to RANKL alone; assay type: functional, cell-based; conditions: RAW264.7, 96 h
[5] = tested on: RAW264.7; experiment: Inhibition of RANKL-induced osteoclast differentiation in mouse RAW264.7 cells assessed as TRAP-positive multinucleated cells level at 2.5 uM incubated with compound in presence of RANKL for 4 days by TRAP staining based light microscopic analysis relative to RANKL alone; assay type: functional; set-up: scale not given: the % may be the effect or the level left
[6] = target: T1, Nuclear factor of activated T-cells, cytoplasmic 1 (Mus musculus) (UniProt O88942); experiment: Inhibition of RANKL-induced NFATc1 translocation in mouse RAW264.7 cells at 1.5 uM incubated with compound in presence of RANKL for 24 hrs by propidium iodide staining based Leica fluorescent microscopic analysis; assay type: cell-based
T1 sequence (whole entry): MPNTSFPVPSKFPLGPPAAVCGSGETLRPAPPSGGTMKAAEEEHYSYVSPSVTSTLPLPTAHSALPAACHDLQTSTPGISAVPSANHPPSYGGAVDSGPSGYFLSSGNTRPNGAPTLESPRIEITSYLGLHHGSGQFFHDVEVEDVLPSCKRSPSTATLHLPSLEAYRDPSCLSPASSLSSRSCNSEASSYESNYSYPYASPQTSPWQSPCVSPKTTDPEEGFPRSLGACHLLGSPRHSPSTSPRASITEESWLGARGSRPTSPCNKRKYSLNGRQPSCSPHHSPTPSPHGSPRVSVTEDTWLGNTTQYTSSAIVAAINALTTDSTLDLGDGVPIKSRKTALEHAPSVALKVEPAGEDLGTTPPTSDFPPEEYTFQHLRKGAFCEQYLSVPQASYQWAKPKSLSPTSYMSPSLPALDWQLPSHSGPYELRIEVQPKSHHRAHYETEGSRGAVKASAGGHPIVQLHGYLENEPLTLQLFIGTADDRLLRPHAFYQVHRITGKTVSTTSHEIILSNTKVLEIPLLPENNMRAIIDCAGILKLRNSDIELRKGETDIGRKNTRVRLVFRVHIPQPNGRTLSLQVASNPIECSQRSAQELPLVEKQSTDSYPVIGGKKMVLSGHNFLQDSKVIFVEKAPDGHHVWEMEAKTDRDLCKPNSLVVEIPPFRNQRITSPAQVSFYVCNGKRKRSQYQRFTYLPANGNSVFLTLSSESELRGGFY

[7] = target: T1, Nuclear factor of activated T-cells, cytoplasmic 1 (Mus musculus); experiment: Inhibition of RANKL-induced NFATc1 translocation in mouse RAW264.7 cells at 2 uM incubated with compound in presence of RANKL for 24 hrs by propidium iodide staining based Leica fluorescent microscopic analysis; assay type: cell-based
[8] = tested on: RAW264.7; experiment: Inhibition of RANKL-induced osteoclastic bone resorption in mouse RAW264.7 cells assessed as bone resorption area at 1.5 uM incubated with compound in presence of RANKL for 4 days by pit formation assay; assay type: functional; set-up: scale not given: the % may be the effect or the level left
[9] = tested on: RAW264.7; experiment: Inhibition of RANKL-induced osteoclastic bone resorption in mouse RAW264.7 cells assessed as bone resorption area at 2 uM incubated with compound in presence of RANKL for 4 days by pit formation assay; assay type: functional; set-up: scale not given: the % may be the effect or the level left
[10] = tested on: RAW264.7; experiment: Inhibition of RANKL-induced NFATc1 protein expression in mouse RAW264.7 cells at 1.5 and 2 uM incubated with compound in presence of RANKL for 24 hrs by propidium iodide staining based Leica fluorescent microscopic analysis; assay type: functional, cell-based
[11] = tested on: RAW264.7; experiment: Inhibition of RANKL-induced osteoclastic bone resorption in mouse RAW264.7 cells assessed as bone resorption area at 1 uM incubated with compound in presence of RANKL for 4 days by pit formation assay; assay type: functional; set-up: scale not given: the % may be the effect or the level left

Row | SMILES | viability at 24 h, 2.5 µM [1] | CC50 at 24 h [2] | Activity [3] | IC50 [4] | Activity [5] | inhibition [6] | inhibition [7] | Activity [8] | Activity [9] | inhibition [10] | Activity [11]
1 | O=C(Nc1ccc(I)cc1F)c1cc(F)ccc1O | 100% | 7.4 µM | Toxic | 1.57 µM | 0.1% | Active | Active | 63.98% | 23.22% | Active | 
2 | O=c1oc2ccc(F)cc2c(=O)n1-c1ccc(I)cc1F | 102% | 6 µM | Toxic | 2.05 µM | 13.9% | Active | Active | 42.55% | 16.93% | Active | 73.07%
3 | O=c1oc2ccc(Cl)cc2c(=O)n1-c1ccc(I)cc1F | 95.5% | 6.9 µM | Toxic | 2.05 µM | 19.1% |  |  |  |  |  | 
4 | O=C(Nc1ccc(I)cc1F)c1cc(Br)ccc1O | 99.6% | 6.4 µM | Toxic | 1.93 µM | 16% |  |  |  |  |  | 
